One may read the AUC(0-t) as the area under the concentration-time curve up to a stated or last time point. Low readings indicate less exposure, high ones more exposure. One may read the Cmax as the peak of the concentration-time curve. As usually defined, the Tmax is the time at which the peak concentration occurs. In general, bioavailability refers to dose-corrected exposure relative to a reference, in per cent.

Here are results for two molecules from patent publication US9949976B2, “Kinase inhibitor and use thereof” (Sihuan Pharmaceutical Holdings Group Ltd., priority 2013, dated 2018).

Each structure is given as a SMILES string. Like-named read-outs stand apart in the source and are kept apart here.

The nature of data set [1]: PK in U-87MG subcutaneous tumor model of BALB/c nude mouse. It is filed as in vivo. Conditions: female, plasma, U87MG tumor-bearing nude mouse, PO QD 3 weeks, after last administration (Day 22). As to the method:
Test animal: female nude mouse (BALB/c), 10 mice/dose group/test compound, weight: 18-22 g/mouse.
U87MG cells from ATCC were cultured in MEM medium containing 10% fetal bovine serum; the cells were digested with trypsin containing EDTA by conventional methods; the cells were passaged for two generations every week, and were continuously cultured in a 37° C., 5% CO2 incubator.
Tumor cells in exponential growth phase were collected; U87MG cells were adjusted with PBS and matrigel at a ratio of 1:1 to a concentration of 5×10^7/mL; 0.1 mL cell suspension was seeded subcutaneously to right back of each mouse by injection with a 1 mL syringe. Tumor volumes were observed and measured, and the average tumor volume of U87MG reached about 200 mm^3 8 days after seeding; the tumor-bearing mice were grouped and were treated by oral administration of test compounds, at a dose of 0.1 mL/10 g body weight.
Blood collection: blood was collected from intraocular canthus. After the last administration (Day 22) of control agent and compound 1, blood/tumor was collected at the same time points, wherein as to 10 nude mice for each dose group, one was for standby, and the other 9 mice were divided into three groups, i.e., A, B and C groups.
A group (No. 1-3): blood was collected before administration, and at 1 h and 2 h after administration, and the mouse was sacrificed after blood collection at 2 h;
B group (No. 4-6): blood was collected at 15 min, 4 h and 6 h after administration, and the mouse was sacrificed after blood collection at 6 h;
C group (No. 7-9): blood was collected at 30 min, 10 h and 24 h after administration, and the mouse was sacrificed after blood collection at 24 h;
300 μL whole blood was collected at each time point, added to an anticoagulation tube containing K2EDTA, and centrifuged at 8000 r/min in a high speed centrifuge for 6 min to separate the plasma; the plasma was stored in a refrigerator at −80° C.
The plasma samples of control agent and compound 1 were analyzed by precipitation of protein: 30 μL plasma was added to a 96-deep well plate, and 200 μL internal standard (acetonitrile solution containing 25 ng/mL PD0332991) was added; the resultant mixture was vortexed for 3 min at 1500 r/min, and centrifuged for 20 min at 4000 r/min; to 100 μL supernatant, 100 μL water was added; the resultant mixture was mixed homogeneously under vortexing and analyzed by LC-MS/MS.

Data set [2] is described as follows: Pharmacokinetics in nude mouse (IV and PO). It is filed as in vivo. Conditions: female, BALB/c nude, plasma; for Vd: read-out: Vss; for bioavailability: read-out: F (absolute bioavailability). Here is the method: Test animal: female nude mouse (BALB/c); control agent: 3 mice/administration route at each time point, weight: 22-25 g/mouse; Compound 1: 3 mice/administration route at each time point, weight: 22-25 g/mouse; Compound 6-1: 6 mice/administration route/test compound, weight: 18-26 g/mouse.
Control agent/Compound 1, IV administration group: before administration, 0.083, 0.25, 0.5, 1, 2, 4, 6, 8, 24, and 30 h after administration; PO administration group (10 mg/kg): before administration, 0.167, 0.5, 1, 2, 4, 6, 8, 24, and 30 h after administration.
Compound 1, PO administration group (100 mg/kg): 0.167, 0.5, 1, 2, 4, 6, 8, 24, 30, and 48 h after administration.
Compound 6-1, IV administration group (2.5 mg/kg) and PO administration group (10 mg/kg): 0.083, 0.25, 0.5, 1, 2, 4, 6, 8 and 24 h after administration; Compound 6-1, PO administration group (100 mg/kg): 0.083, 0.25, 0.5, 1, 2, 4, 6, 8, 24, 30, 48 h after administration.
Control agent/Compound 1: 300 μL whole blood was collected from intraocular canthus at each time point, and was centrifuged at 8000 r/min for 6 min in a high speed centrifuge to separate the plasma; the plasma was stored in a refrigerator at −80° C. Compound 6-1: 60 μL whole blood was collected from intraocular canthus at each time point, and was placed in an anticoagulation tube containing anticoagulant agent K2EDTA; the blood sample was centrifuged at 8000 r/min for 6 min to obtain a plasma sample.
The plasma samples of control agent and compound 1 were analyzed by precipitation of protein: to 50 μL plasma, 200 μL internal standard (acetonitrile solution containing 500 ng/mL Warfarin) was added; the resultant mixture was vortexed for 3 min at 1500 r/min, and centrifuged for 5 min at 13000 r/min; to 100 μL supernatant, 400 μL water was added; the resultant mixture was mixed homogeneously under vortexing and analyzed by LC-MS/MS.
The plasma sample of compound 6-1 was analyzed by precipitation of protein: to a suitable amount of plasma, a given volume of internal standard solution was added; the resultant mixture was vortexed and centrifuged; the supernatant was diluted by adding a given volume of water; the resultant mixture was mixed homogeneously under vortexing and analyzed by LC-MS/MS.

Turning to `CCN1CCN(Cc2cnc(Nc3cc(-c4cc(F)c5nc(C)n(C(C)C)c5c4)c(F)cn3)nc2)CC1` [Compound 1, 5-((4-ethylpiperazin-1-yl)methyl)-N-(5-fluoro-4-(4-fluoro-1-isopropyl-2-methyl-1H-benzo[d]imidazol-6-yl)pyridin-2-yl)pyrimidin-2-amine], the AUC(0-t) in data set [1] (50 mg/kg) came out at 23500 ng·h/mL; in data set [1] (100 mg/kg) it was 34800 ng·h/mL; in data set [1] (200 mg/kg), 49700 ng·h/mL; in data set [2] (IV, 5 mg/kg), 2080 ng·h/mL; in data set [2] (PO, 10 mg/kg), 2760 ng·h/mL; in data set [2] (PO, 100 mg/kg), 33900 ng·h/mL. The Cmax in data set [1] (50 mg/kg) is 1770 ng/mL; in data set [1] (100 mg/kg), 2180 ng/mL; in data set [1] (200 mg/kg) it was 2510 ng/mL; in data set [2] (PO, 10 mg/kg) it was 675 ng/mL; in data set [2] (PO, 100 mg/kg), 3080 ng/mL. Further, the Tmax is 2 h in data set [1] (50 mg/kg); 1 h in data set [1] (100 mg/kg); 6 h in data set [1] (200 mg/kg); 2 h in data set [2] (PO, 10 mg/kg); 2 h in data set [2] (PO, 100 mg/kg). This molecule had a clearance in data set [2] (IV, 5 mg/kg) of 38.2 mL/min/kg. Also, in data set [2] (IV, 5 mg/kg), the Vd amounted to 4.61 L/kg. The bioavailability in data set [2] (PO, 10 mg/kg) came to 65.5%; in data set [2] (PO, 100 mg/kg) it was 77.9%.

In the case of `CCN1CCN(Cc2ccc(Nc3ncc(F)c(-c4cc(F)c5nc(C)n(C(C)C)c5c4)n3)nc2)CC1` [LY2835219, reference compound], in data set [1] (50 mg/kg), the AUC(0-t) was determined as 19400 ng·h/mL, the Cmax was 1160 ng/mL and the Tmax worked out at 1 h. Besides, in data set [1] (100 mg/kg), the exposure AUC(0-t) came to 27900 ng·h/mL, the peak level (Cmax) was 1530 ng/mL and the Tmax was 4 h. For the same molecule, in data set [2] (IV, 5 mg/kg), the AUC(0-t) was determined as 1590 ng·h/mL, the clearance is 50.2 mL/min/kg and the Vd turned out to be 5.79 L/kg. Also, in data set [2] (PO, 10 mg/kg), the AUC(0-t) was found to be 1310 ng·h/mL, the Cmax stood at 368 ng/mL, the Tmax is 0.5 h and the bioavailability was 41.1%.
